SMILES strings stand for the structures. A value given as a limit tells only on which side of the number the result lay.

Experiment [1] concerns H3K4me3 mark. In words: Histone lysine demethylase immunofluorescence assay, non-transfected U2OS cells. The conditions noted are these: Homo sapiens, staining of the H3K4me3 mark, 20 hours incubation with compound. Format: cell-based. The gist of the method: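 Non-transfected U2OS cells incubated with compounds 20 h in DMEM/5% FBS. Fixed cells immunostained for H3K4me3 with Hoechst counterstain and imaged by high-throughput microscopy. IC50 based on average cellular H3K4me3 staining.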

Experiment [2] has as its target T1, KDM4A (Homo sapiens, UniProt O75164).
T1 construct: Full length; host or cells: U2OS
T1 sequence (O75164 1-1064): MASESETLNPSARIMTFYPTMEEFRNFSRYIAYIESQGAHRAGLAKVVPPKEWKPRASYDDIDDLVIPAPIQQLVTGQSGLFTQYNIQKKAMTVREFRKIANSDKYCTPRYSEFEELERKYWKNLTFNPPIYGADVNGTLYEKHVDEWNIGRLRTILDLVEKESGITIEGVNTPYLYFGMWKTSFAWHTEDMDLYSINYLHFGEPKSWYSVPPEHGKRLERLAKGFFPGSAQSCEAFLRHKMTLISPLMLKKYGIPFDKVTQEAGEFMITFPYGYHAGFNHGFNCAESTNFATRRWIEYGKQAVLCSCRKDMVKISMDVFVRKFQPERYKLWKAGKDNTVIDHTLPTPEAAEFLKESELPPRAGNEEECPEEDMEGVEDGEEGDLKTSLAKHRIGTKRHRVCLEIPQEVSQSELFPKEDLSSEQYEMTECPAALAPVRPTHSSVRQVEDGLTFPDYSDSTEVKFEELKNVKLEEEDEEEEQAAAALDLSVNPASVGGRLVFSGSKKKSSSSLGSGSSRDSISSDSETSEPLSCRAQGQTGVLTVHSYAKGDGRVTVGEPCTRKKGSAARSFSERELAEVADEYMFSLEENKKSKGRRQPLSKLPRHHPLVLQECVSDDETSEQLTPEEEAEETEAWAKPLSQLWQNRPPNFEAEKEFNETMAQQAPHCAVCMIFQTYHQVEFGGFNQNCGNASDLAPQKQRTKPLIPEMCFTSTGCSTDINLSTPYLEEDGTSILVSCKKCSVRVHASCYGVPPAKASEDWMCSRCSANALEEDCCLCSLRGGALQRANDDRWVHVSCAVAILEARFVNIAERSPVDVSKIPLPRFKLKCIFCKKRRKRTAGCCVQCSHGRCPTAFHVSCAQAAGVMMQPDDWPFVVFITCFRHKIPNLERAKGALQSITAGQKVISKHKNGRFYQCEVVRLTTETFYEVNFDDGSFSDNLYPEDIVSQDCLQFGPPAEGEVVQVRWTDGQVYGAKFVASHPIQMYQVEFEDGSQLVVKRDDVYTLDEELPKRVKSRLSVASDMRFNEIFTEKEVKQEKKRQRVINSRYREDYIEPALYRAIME
The experiment can be described thus: Histone lysine demethylase immunofluorescence assay, U2OS cells transfected with KDM4A. Format: cell-based. The conditions noted are these: U2OS cells transfected with pCMVHA KDM4A; mark detected H3K9me3; 20 hours. The protocol: U2OS cells were seeded 24 hours before transfection. Transfection was performed with Fugene HD transfection reagent as recommended by the manufacturer. 6 hours after transfection, the cells were harvested and seeded into multi well plates into media containing compound. The media used was DMEM containing 10% FBS and pen/strep. 20 hours after incubation of cells with compounds, the cells were washed in PBS, harvested by fixation with formaldehyde 4% aqueous solution, and washed in PBS. Subsequently, the cells were permeabilized in PBS with 0.2% Triton X-100 for. Blocking was performed in PBS with 0.2% Triton X-100 and 5% FBS. The cells were incubated with primary antibodies in blocking solution over night at 4° C. The primary antibodies used in the assays were HA.11 (Covance, MMS-101P) and the antibody detecting the mark specified in the table below. After incubation with primary antibodies, the cells were washed with PBS, incubated with secondary antibodies (Alexa fluor 594 goat anti rabbit IgG, Invitrogen, A11012; Alexa flour 488 donkey anti mouse IgG, Invitrogen, A21202) and Hoechst, (Sigma, 33342) in blocking solution, and washed again with PBS. Finally, PBS was added and high throughput imaging and analysis were performed by an IN Cell Analyzer 1000 (GE Healthcare). The robot software analyzed individual cells and divided these into HA+ (transfected cells) and HA− (non-transfected cells). The IC50 values were based on an average measure of the staining of the mark specified in the table below in the transfected cells.

For orientation: IC50 means the point on the concentration scale where inhibition reaches its midpoint. Regarding `CCN(CC)CCCCNCc1cc(C2NCCCN2C)ccn1` (stereo not shown) [Compound 68, [4-(diethylamino)butyl]({[4-(1-methyl-1,3-diazinan-2-yl)pyridin-2-yl]methyl})amine], in experiment [1], the IC50 is below 250 nM. `COc1ccccc1CN1CCC(NC(=O)CNCc2cc(CNC3CC3)ccn2)CC1` [Compound 20, 2-[({4-[(cyclopropylamino)-methyl]pyridin-2-yl}methyl)amino]-N-{1-[(2-methoxyphenyl)methyl]-piperidin-4-yl}acetamide]: the IC50 in experiment [1] is 250 to 2500 nM; in experiment [2], above 2500 nM. On to `O=Cc1ccnc(CNCCCCN(Cc2ccccc2)C2CC2)c1` [Compound 109, 2-[({4-[benzyl-(cyclopropyl)amino]-butyl}amino)methyl]-pyridine-4-carbaldehyde], for which the IC50 in experiment [2] is above 2500 nM.
